Assay results published in PubChem BioAssay (NCI).
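Abbreviation: GI50, concentration required for 50% inhibition of growth. TGI marks complete inhibition of growth.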

Columns and labels:
Experiment in all cases: growth of human tumour cells (NCI), 384-well format; in the data active means GI50 below about 0.43 µM; inactive means the rest
[1] = test system: SNB-75 CNS
[2] = test system: SK-OV-3 ovarian
[3] = test system: CCRF-CEM leukemia
[4] = test system: SK-MEL-5 melanoma
[5] = test system: HT29 colon
[6] = test system: OVCAR-4 ovarian
[7] = test system: COLO 205 colon
[8] = test system: MCF7 breast
[9] = test system: UACC-62 melanoma
[10] = test system: SF-295 CNS
[11] = test system: HCT-15 colon
[12] = test system: T-47D breast
[13] = test system: MDA-MB-435 melanoma
[14] = test system: HCC-2998 colon
[15] = test system: U251 glioblastoma
[16] = test system: MDA-MB-468 breast
[17] = test system: SK-MEL-28 melanoma
[18] = test system: HOP-92 NSCLC
[19] = test system: IGROV1 ovarian
[20] = test system: UO-31 renal
[21] = test system: A549 NSCLC
[22] = test system: NCI-H226 lung
[23] = test system: MDA-MB-231 breast
[24] = test system: RPMI-8226 leukemia
[25] = test system: 786-0 renal
[26] = test system: CAKI-1 renal
[27] = test system: TK-10 renal
[28] = test system: NCI-H460 NSCLC
[29] = test system: SF-268 CNS
[30] = test system: DU-145 prostate
[31] = test system: NCI-H322M lung
[32] = test system: EKVX NSCLC
[33] = test system: BT-549 breast
[34] = test system: MALME-3M melanoma
[35] = test system: A498 renal
[36] = test system: NCI-H23 lung
[37] = test system: LOX IMVI melanoma
[38] = test system: OVCAR-3 ovarian
[39] = test system: KM12 colon
[40] = test system: NCI-H522 lung
[41] = test system: M14 melanoma
[42] = test system: HS 578T breast
[43] = test system: RXF 393 renal
[44] = test system: SW-620 colon
[45] = test system: OVCAR-8 ovarian
[46] = test system: SF-539 CNS
[47] = test system: SNB-19 CNS
[48] = test system: K-562 leukemia
[49] = test system: MOLT-4 leukemia
[50] = test system: PC-3 prostate
[51] = test system: UACC-257 melanoma
[52] = test system: HL-60(TB) leukemia
[53] = test system: HOP-62 NSCLC
[54] = test system: NCI/ADR-RES ovarian
[55] = test system: SN12C renal
[56] = test system: HCT-116 colon
[57] = test system: ACHN renal
[58] = test system: OVCAR-5 ovarian

O=C(Oc1ccc([N+](=O)[O-])cc1)N1CCC(C(O)(c2ccc3c(c2)OCO3)c2ccc3c(c2)OCO3)CC1
inactive: GI50 [1] 24.6 µM | GI50 [2] > 100 µM | GI50 [3] > 100 µM | GI50 [4] > 100 µM | GI50 [5] > 100 µM | GI50 [6] > 100 µM | GI50 [7] > 100 µM | GI50 [8] > 100 µM | GI50 [9] > 100 µM | GI50 [10] > 100 µM | GI50 [11] > 100 µM | GI50 [12] 2.93 µM | GI50 [13] > 100 µM | GI50 [14] 18.2 µM | GI50 [15] > 100 µM | GI50 [16] 32.6 µM | GI50 [17] > 100 µM | GI50 [18] 44.5 µM | GI50 [19] > 100 µM | GI50 [20] > 100 µM | GI50 [21] > 100 µM | GI50 [22] > 100 µM | GI50 [23] > 100 µM | GI50 [24] > 100 µM | GI50 [25] > 100 µM | GI50 [26] > 100 µM | GI50 [27] > 100 µM | GI50 [28] > 100 µM | GI50 [29] 11.1 µM | GI50 [30] > 100 µM | GI50 [31] > 100 µM | GI50 [32] > 100 µM | GI50 [33] 53.1 µM | GI50 [34] > 100 µM | GI50 [35] > 100 µM | GI50 [36] > 100 µM | GI50 [37] > 100 µM | GI50 [38] > 100 µM | GI50 [39] > 100 µM | GI50 [40] > 100 µM | GI50 [41] > 100 µM | GI50 [42] 24.5 µM | GI50 [43] 98.7 µM | GI50 [44] > 100 µM | GI50 [45] > 100 µM | GI50 [46] > 100 µM | GI50 [47] > 100 µM | GI50 [48] > 100 µM | GI50 [49] > 100 µM | GI50 [50] > 100 µM | GI50 [51] > 100 µM | GI50 [52] > 100 µM | GI50 [53] > 100 µM | GI50 [54] > 100 µM | GI50 [55] > 100 µM | GI50 [56] > 100 µM | GI50 [57] > 100 µM | GI50 [58] > 100 µM
> 100 µM: TGI [1] | TGI [2] | TGI [3] | TGI [4] | TGI [5] | TGI [6] | TGI [7] | TGI [8] | TGI [9] | TGI [10] | TGI [11] | TGI [12] | TGI [13] | TGI [14] | TGI [15] | TGI [16] | TGI [17] | TGI [18] | TGI [19] | TGI [20] | TGI [21] | TGI [22] | TGI [23] | TGI [24] | TGI [25] | TGI [26] | TGI [27] | TGI [28] | TGI [29] | TGI [30] | TGI [31] | TGI [32] | TGI [33] | TGI [34] | TGI [35] | TGI [36] | TGI [37] | TGI [38] | TGI [39] | TGI [40] | TGI [41] | TGI [42] | TGI [43] | TGI [44] | TGI [45] | TGI [46] | TGI [47] | TGI [48] | TGI [49] | TGI [50] | TGI [51] | TGI [52] | TGI [53] | TGI [54] | TGI [55] | TGI [56] | TGI [57] | TGI [58]
